Measured values: patent US20040265252A1, “Compounds stimulating and inhibiting melanin formation, and methods for screening these compounds” (New York University, priority 2003, published 2004)

Tests used:
[1] = target: T1, tyrosinase (Mus musculus, UniProt P11344); experiment: Tyrosinase assay on pre-lysed cells; type: biochemical; conditions: pre-lysed cells treated with compound
T1 construct: tyrosinase assay on cell lysates derived from whole cells; endogenous in cells; host or cells: melanocytes
T1 sequence (P11344 19-533): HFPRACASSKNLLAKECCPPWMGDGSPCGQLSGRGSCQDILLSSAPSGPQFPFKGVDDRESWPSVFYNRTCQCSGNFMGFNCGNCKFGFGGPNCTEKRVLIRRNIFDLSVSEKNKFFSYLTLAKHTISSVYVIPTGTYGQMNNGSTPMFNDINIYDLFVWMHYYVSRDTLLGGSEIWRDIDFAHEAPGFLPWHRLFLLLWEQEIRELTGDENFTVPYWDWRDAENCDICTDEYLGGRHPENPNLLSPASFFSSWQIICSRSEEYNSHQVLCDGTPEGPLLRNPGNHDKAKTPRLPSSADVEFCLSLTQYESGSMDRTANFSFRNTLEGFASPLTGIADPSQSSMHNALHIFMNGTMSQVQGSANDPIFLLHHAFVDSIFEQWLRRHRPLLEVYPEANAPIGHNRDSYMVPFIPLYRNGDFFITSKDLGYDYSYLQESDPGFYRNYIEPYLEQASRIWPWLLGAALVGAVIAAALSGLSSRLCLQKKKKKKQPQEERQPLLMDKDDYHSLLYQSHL

[2] = tested on: tyrosinase; experiment: Tyrosinase assay on conditioned media; type: cell-based; conditions: conditioned media of treated cells
[3] = tested on: melan-a melanocytes; experiment: Melanin assay / pigmentation of cultured melanocytes; type: cell-based, mouse
Method: The numbers above the bars indicate the percent increase in melanin production relative to the untreated control. For this assay, melan-a melanocytes were cultured in DMEM supplements with 10% FCS, 1% L-glutamine, 1% penicillin/streptomycin, and 40 nM TPA. The cultures were maintained at 37° C., 5% CO2. The cells were seeded at 5×10^4 cells per well in 24 well plates and treated for 72 hours. Photographs were taken after 72 hours at 40× magnification. The cells were harvested, centrifuged, and the protein was extracted from the pellet with 1:1 ethanol:ether. The melanin pellets were solubilized in 20% DMSO/2N NaOH. Samples were transferred to a 96-well plate and the optical density was read at 490 nm using a Biorad 550 spectrophotometer.
The cells were rinsed with phosphate buffered saline (PBS) and lysed with an extraction buffer of […] Tris, pH 7.5; 2 mM ethylenediamine tetraacetic acid (EDTA), pH 7.8; 150 mM NaCl; 1% Titron X-100, with protease inhibitor cocktail at 4° C. The cell extracts were then spun at 12,000 rpm for 10 minutes at 4° C. The remaining pellet was assayed for melanin by rinsing twice with ethanol-ether (1:1) and dissolving in 200 microL of 2N NaOH in 20% DMSO at 60° C. A 100 microL aliquot of the resulting solution was then measured for absorbance at […].

[4] = target: T2, mitochondrial F1F0 ATPase (Mus musculus, UniProt P56480+Q03265+Q9CR84); experiment: Affinity chromatography on immobilized PPA (PPA-Affi) with competition, melanocyte extracts; type: binding; conditions: for competition with ATPase binding to PPA affinity matrix: melan-a extracts, competitor 30 minutes at 4° C., antibodies to beta and alpha subunits
T2 construct: endogenous in cells; host or cells: Melan-a murine melanocytes
Method: Melanocyte extracts were incubated with PPA-Affi in the presence of the compounds shown. After extensive washing, bound proteins were then eluted with SDS-containing buffer and subjected to SDS-PAGE and silver staining. […] The binding of mitochondrial ATPase was inhibited not only by PPA itself but also by oligomycin, a known mitochondrial ATPase inhibitor.
FIG. 5 is another illustration that mitochondrial ATPase is the target of PPA. The experimental protocol were similar to those described above, but rather than silver stain, immunoblotting was conducted with antibodies to the beta and alpha subunits of the mitochondrial ATPase. The primary antibody in A was anti-F1-ATPase beta subunit antibody (1:2500, 1 hour), and the primary antibody in B was anti-ATPase alpha subunit antibody (1:2500, 1 hour). The secondary antibody was anti-mouse Goat IgG (1:2500, 1 hour).
For this experiment, the cell source was Melan-a (murine melanocyte). The reaction volume was 147 microL of protein extract (0.3 mg/mL)+147 microL bead buffer+6 microL competitor (aurovertin or PPA6 or DMSO). The competition took place for 30 minutes at 4° C. with rocking. The bead volume was 40 microL of 50% slurry. The beads were washed with 1 mL bead buffer seven times. Elution was with 40 microL+30 microL Laemmli buffer, heating for 4 minutes at 90° C.
For the gel electrophoresis, the gel was 10% SDS-PAGE gel, 20-well combination. The loading volume was 25 microL (2nd elution). Running was 30V, overnight.
Protein was extracted from cells by incubation with extraction buffer (1 mM CaCl2, 150 mM NaCL; 10 mM Tris, pH 7.4; 1% Triton X-100, 1 mM PMSF plus protease inhibitor cocktail (Roche, NJ, USA) for five minutes on ice. Crude lysate was centrifuged at 13,000 rpm for ten minutes. The protein concentration of the supernatant was measured by the Bradford assay (Bio-Rad, CA) and adjusted to a final concentration of 1 microg/microL prior to affinity chromatography. […]

[5] = target: T3, mitochondrial ATPase (beta subunit, OSCP) (Homo sapiens, UniProt P05496+P06576+P48047); experiment: PPA-Affi affinity binding and competition, SK Mel19 extracts; conditions: SK Mel19 protein extract
T3 construct: Using human melanoma cell source SK Mel 19, the reaction volume was 147 microL of protein extract; endogenous in cells; host or cells: SK Mel19 human melanoma cells
Method: (§1) Using human melanoma cell source SK Mel 19, the reaction volume was 147 microL of protein extract (1.0 mg/mL)+147 microL bead buffer+6 microL competitor (oligomycin) or S+DMSO. Competition was effected for 30 minutes at 4° C. with rocking. The bead volume was 40 microL of 50% slurry. Washing was five times with 1 mL bead buffer, and elution was with 40 microL Laemmli buffer, with heating for 4 minutes at 90° C. Gel electrophoresis was with 10% SDS-PAGE gel, 20 well combination. Loading volume was 35 microL, and running was 30V, overnight.
as §1, with “99” for “147”, “mg/mL)+99” for “mg/mL)+147”, “buffer+2” for “buffer+6”, “DMSO. Incubation” for “S+DMSO. Competition”, “100V for one hour.” for “30V, overnight.”

| Structure (SMILES) | tyrosinase activity [1] | secreted tyrosinase activity [2] | pigmentation (melanin production) [3] | competition with ATPase binding to PPA affinity matrix [4] | elution of beta subunit and OSCP bound to PPA-Affi [5] | inhibition of binding of mitochondrial ATPase to PPA-Affi ([4]; melanocyte extracts, SDS-PAGE and silver staining) |
| --- | --- | --- | --- | --- | --- | --- |
| CC(C)Cn1c(=O)n(C)c(=O)c2[nH]cnc21 [IBMX, 3-Isobutyl-1-methylxanthine] | only a marginal change | large increase in secreted enzyme activity | – | – | – | – |
| NC(=S)Nc1ccccc1 [PTU, phenylthiourea] | significant decrease in tyrosinase activity | – | – | – | – | – |
| CC[C@H]1O[C@]2(C)[C@H](OC(C)=O)[C@@]1(C)O[C@@H](/C=C/C=C/C=C/c1oc(=O)cc(OC)c1C)[C@@H]2O [aurovertin, aurovertin B] | – | – | promote pigmentation | do not compete | – | – |
| CC[C@H]1/C=C/C=C/C[C@@H](C)[C@H](O)[C@@](C)(O)C(=O)[C@@H](C)[C@H](O)[C@@H](C)C(=O)[C@@H](C)[C@H](O)[C@@H](C)/C=C/C(=O)O[C@@H]2[C@H](C)[C@H](CC1)O[C@]1(CC[C@H](C)[C@H](C[C@@H](C)O)O1)[C@H]2C [oligomycin, Oligomycin] | – | – | promote pigmentation | competed with ATPase binding | eluted by oligomycin | inhibited |
